Patent US12459951B2, “Compounds that interact with RAS superfamily proteins for treatment of cancers, inflammatory diseases, rasopathies, and fibrotic disease” (SHY Therapeutics, LLC, priority 2022, dated 2025)

What was measured:
[1] = test system: Erk1/2 phosphorylation; assay: Erk1/2 Phosphorylation Assay (western blot), Panc-1; assay type: cell-based, human; conditions: at 10 μM, * = activation
How it was run: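 KRas G12D Panc-1 cells were treated 6 h at 37° C with compound at 10 μM or serial dilutions for IC50 (0.3% DMSO). In method 1, cells were serum-starved overnight (0.5% FBS) and then given 1.5 ng/ml EGF for 15 min. In method 2, cells stayed in 10% FBS without stimulation. Lysate phospho-Erk1/2 (Thr202/Tyr204) was read by western blot.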

[2] = test system: IL6; assay: IL-6 Quantification Assay (ELISA), LPS-stimulated RAW 264.7; assay type: cell-based; set-up: inhibition: dose or concentration left out as unconfirmed; conditions: Mus musculus, RAW264.7; read-out: IL-6: % inh.
[3] = test system: TNF-alpha; assay: TNF-alpha Quantification Assay (ELISA), LPS-stimulated RAW 264.7; assay type: cell-based; conditions: Mus musculus, RAW264.7; at 10 μM; read-out: TNFα: % inh.
[4] = test system: KRas G12D mutant; assay: Ras GTP Binding Domain Inhibition Assay (Ras Superfamily Assay); conditions: 20 μM compound; for KRas G12D mutant + SOS: % inh.: with SOS; for KRas G12D mutant: % inh.: without SOS
How it was run: (§1)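 Binding of 100 nM fluorescent GTP (Cy3 or Cy5, 45 min, room temperature) was read after washes from plate-captured His-tagged protein. Beforehand, compounds at 20 μM or in dilution series for IC50 sat 3 h on the protein in Tris buffer pH 7.4 or 7.0 with 1% DMSO, Sos GEF optionally added for the last hour.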

[5] = test system: KRas wild type; assay: as above; conditions: 20 μM compound; for KRas wild type + SOS: % inh.: with SOS; for KRas wild type: % inh.: without SOS
How it was run: as §1

[6] = molecular target: T1, Rac-1 (Homo sapiens, UniProt P63000); assay: as above; conditions: read-out: Rac-1: % inh.
T1 construct: made in house
How it was run: as §1

| SMILES | % inh of Erk1/2 phosphorylation in Panc-1 [1] | inhibition [2] [%] | inhibition at 10 µM [3] [%] | KRas G12D mutant + SOS: % inh. [4] | KRas G12D mutant: % inh. [4] | KRas wild type + SOS: % inh. [5] | KRas wild type: % inh. [5] | inhibition at 20 µM [6] [%] |
| --- | --- | --- | --- | --- | --- | --- | --- | --- |
| Cc1c(-c2ccn(C)n2)cn2nc(-c3nccn3C)nc(Nc3nnco3)c12.Cl [Compound 119, N-(5-Methyl-2-(1-methyl-1H-imidazol-2-yl)-6-(1-methyl-1H-pyrazol-3-yl)pyrrolo[2,1-f][1,2,4]triazin-4-yl)-1,3,4-oxadiazol-2-amine hydrochloride salt] | A* (1-25% activation) | 50 to 74 | 25 to 49 | B (B = 26-49% inhibition) | C (C = 50-75% inhibition) | A (A = 1-25% inhibition) | C (C = 50-75% inhibition) | 26 to 49 |
| Cc1c(-c2ccn(C)n2)cn2nc(-c3nccn3C)nc(Nc3cnccn3)c12 [Compound 120, 5-Methyl-2-(1-methyl-1H-imidazol-2-yl)-6-(1-methyl-1H-pyrazol-3-yl)-N-(pyrazin-2-yl)pyrrolo[2,1-f][1,2,4]triazin-4-amine] | C* (46-84% activation) | 25 to 49 | 1 to 24 | A (A = 1-25% inhibition) | B (B = 26-49% inhibition) | C (C = 50-75% inhibition) | A (A = 1-25% inhibition) | 26 to 49 |
| Cc1c(-c2ccn(C(C)C)n2)cn2nc(-c3nccn3C)nc(Nc3nccc(OCCO)n3)c12 [Compound 121, 2-((2-((6-(1-Isopropyl-1H-pyrazol-3-yl)-5-methyl-2-(1-methyl-1H-imidazol-2-yl)pyrrolo[2,1-f][1,2,4]triazin-4-yl)amino)pyrimidin-4-yl)oxy)ethan-1-ol] | D* (85-100% activation) | 50 to 74 | 25 to 49 | D (D = 76-100% inhibition) | D (D = 76-100% inhibition) | C (C = 50-75% inhibition) | D (D = 76-100% inhibition) | 76 to 100 |
| COCCOc1cc(Nc2nc(-c3nccn3C)nn3cc(-c4ccn(C(C)C)n4)c(C)c23)ncn1 [Compound 122, 6-(1-Isopropyl-1H-pyrazol-3-yl)-N-(6-(2-methoxyethoxy)pyrimidin-4-yl)-5-methyl-2-(1-methyl-1H-imidazol-2-yl)pyrrolo[2,1-f][1,2,4]triazin-4-amine] | A* (1-25% activation) | 50 to 74 | 1 to 24 | D (D = 76-100% inhibition) | D (D = 76-100% inhibition) | D (D = 76-100% inhibition) | D (D = 76-100% inhibition) | 76 to 100 |
| Cc1c(-c2ccn(C(C)C)n2)cn2nc(-c3nccn3C)nc(Nc3cc(OCCN(C)C)ncn3)c12 [Compound 123, N-(6-(2-(Dimethylamino)ethoxy)pyrimidin-4-yl)-6-(1-isopropyl-1H-pyrazol-3-yl)-5-methyl-2-(1-methyl-1H-imidazol-2-yl)pyrrolo[2,1-f][1,2,4]triazin-4-amine] | A* (1-25% activation) | 75 to 100 | 25 to 49 | D (D = 76-100% inhibition) | D (D = 76-100% inhibition) | D (D = 76-100% inhibition) | D (D = 76-100% inhibition) | 76 to 100 |
| Cc1c(-c2ccn(C)n2)cn2nc(-c3nccn3C)nc(Nc3cc4n(n3)CCO4)c12 [Compound 124, N-(5-Methyl-2-(1-methyl-1H-imidazol-2-yl)-6-(1-methyl-1H-pyrazol-3-yl)pyrrolo[2,1-f][1,2,4]triazin-4-yl)-2,3-dihydropyrazolo[5,1-b]oxazol-6-amine] | C* (46-84% activation) | 25 to 49 | 1 to 24 | C (C = 50-75% inhibition) | C (C = 50-75% inhibition) | C (C = 50-75% inhibition) | D (D = 76-100% inhibition) | 76 to 100 |
| Cc1c(-c2ccn(C(C)C)n2)cn2nc(-c3nccn3C)nc(Nc3ncc[nH]3)c12 [Compound 125, N-(1H-Imidazol-2-yl)-6-(1-isopropyl-1H-pyrazol-3-yl)-5-methyl-2-(1-methyl-1H-imidazol-2-yl)pyrrolo[2,1-f][1,2,4]triazin-4-amine] | A (1-25% inhibition) | 50 to 74 | 1 to 24 | C (C = 50-75% inhibition) | C (C = 50-75% inhibition) | B (B = 26-49% inhibition) | C (C = 50-75% inhibition) | 50 to 75 |
| Cc1c(-c2ccn(C)n2)cn2nc(-c3nccn3C)nc(Nc3cc(OC4CC4)ccn3)c12 [Compound 126, N-(4-Cyclopropoxypyridin-2-yl)-5-methyl-2-(1-methyl-1H-imidazol-2-yl)-6-(1-methyl-1H-pyrazol-3-yl)pyrrolo[2,1-f][1,2,4]triazin-4-amine] | D* (85-100% activation) | 25 to 49 | 0 | B (B = 26-49% inhibition) | B (B = 26-49% inhibition) | A (A = 1-25% inhibition) | A (A = 1-25% inhibition) | 26 to 49 |
| Cc1c(-c2ccn(C)n2)cn2nc(-c3nccn3C)nc(Nc3cc(OC(F)(F)F)ccn3)c12 [Compound 127, 5-Methyl-2-(1-methyl-1H-imidazol-2-yl)-6-(1-methyl-1H-pyrazol-3-yl)-N-(4-(trifluoromethoxy)pyridin-2-yl)pyrrolo[2,1-f][1,2,4]triazin-4-amine] | D* (85-100% activation) | 50 to 74 | 0 | D (D = 76-100% inhibition) | D (D = 76-100% inhibition) | D (D = 76-100% inhibition) | D (D = 76-100% inhibition) | 76 to 100 |
| Cc1c(-c2ccn(C)n2)cn2nc(-c3nccn3C)nc(Nc3cc(OC(F)F)ccn3)c12 [Compound 128, N-(4-(Difluoromethoxy)pyridin-2-yl)-5-methyl-2-(1-methyl-1H-imidazol-2-yl)-6-(1-methyl-1H-pyrazol-3-yl)pyrrolo[2,1-f][1,2,4]triazin-4-amine] | D* (85-100% activation) | 25 to 49 | 25 to 49 | D (D = 76-100% inhibition) | D (D = 76-100% inhibition) | D (D = 76-100% inhibition) | D (D = 76-100% inhibition) | 76 to 100 |
| Cc1c(-c2ccn(C)n2)cn2nc(-c3nccn3C)nc(Nc3cc(OCC(F)(F)F)ccn3)c12 [Compound 129, 5-Methyl-2-(1-methyl-1H-imidazol-2-yl)-6-(1-methyl-1H-pyrazol-3-yl)-N-(4-(2,2,2-trifluoroethoxy)pyridin-2-yl)pyrrolo[2,1-f][1,2,4]triazin-4-amine] | D* (85-100% activation) | 50 to 74 | 1 to 24 | B (B = 26-49% inhibition) | B (B = 26-49% inhibition) | B (B = 26-49% inhibition) | B (B = 26-49% inhibition) | 26 to 49 |
| COCCO[C@H]1C[C@H](Nc2nc(-c3nccn3C)nn3cc(-c4ccn(C)n4)c(C)c23)C1 [Compound 130, N-((1r,3r)-3-(2-Methoxyethoxy)cyclobutyl)-5-methyl-2-(1-methyl-1H-imidazol-2-yl)-6-(1-methyl-1H-pyrazol-3-yl)pyrrolo[2,1-f][1,2,4]triazin-4-amine] | B* (26-49% activation) | 0 | 1 to 24 | A (A = 1-25% inhibition) | B (B = 26-49% inhibition) | 0 (0 = 0% inhibition) | A (A = 1-25% inhibition) | 0 |
| CO[C@H]1C[C@@H](Nc2nc(-c3nccn3C)nn3cc(-c4ccn(C)n4)c(C)c23)C1 [Compound 131, N-((1s,3s)-3-Methoxycyclobutyl)-5-methyl-2-(1-methyl-1H-imidazol-2-yl)-6-(1-methyl-1H-pyrazol-3-yl)pyrrolo[2,1-f][1,2,4]triazin-4-amine] | A* (1-25% activation) | 0 | 1 to 24 | 0 (0 = 0% inhibition) | A (A = 1-25% inhibition) | 0 (0 = 0% inhibition) | B (B = 26-49% inhibition) | 0 |
